In EP4644396A1 (Visionpharma (Nantong) Co., Ltd, priority 2022, dated 2024):
pIC50: −log10 of the molar value.

target: T1, human TLR8 (Homo sapiens, UniProt Q9NR97); assay: HEK-Blue hTLR8 SEAP reporter gene inhibition assay; format: cell-based; details: HEK-Blue hTLR8 IC50 (µM)
T1 construct: expressed in transfected cells
T1 sequence (Q9NR97 27-1041): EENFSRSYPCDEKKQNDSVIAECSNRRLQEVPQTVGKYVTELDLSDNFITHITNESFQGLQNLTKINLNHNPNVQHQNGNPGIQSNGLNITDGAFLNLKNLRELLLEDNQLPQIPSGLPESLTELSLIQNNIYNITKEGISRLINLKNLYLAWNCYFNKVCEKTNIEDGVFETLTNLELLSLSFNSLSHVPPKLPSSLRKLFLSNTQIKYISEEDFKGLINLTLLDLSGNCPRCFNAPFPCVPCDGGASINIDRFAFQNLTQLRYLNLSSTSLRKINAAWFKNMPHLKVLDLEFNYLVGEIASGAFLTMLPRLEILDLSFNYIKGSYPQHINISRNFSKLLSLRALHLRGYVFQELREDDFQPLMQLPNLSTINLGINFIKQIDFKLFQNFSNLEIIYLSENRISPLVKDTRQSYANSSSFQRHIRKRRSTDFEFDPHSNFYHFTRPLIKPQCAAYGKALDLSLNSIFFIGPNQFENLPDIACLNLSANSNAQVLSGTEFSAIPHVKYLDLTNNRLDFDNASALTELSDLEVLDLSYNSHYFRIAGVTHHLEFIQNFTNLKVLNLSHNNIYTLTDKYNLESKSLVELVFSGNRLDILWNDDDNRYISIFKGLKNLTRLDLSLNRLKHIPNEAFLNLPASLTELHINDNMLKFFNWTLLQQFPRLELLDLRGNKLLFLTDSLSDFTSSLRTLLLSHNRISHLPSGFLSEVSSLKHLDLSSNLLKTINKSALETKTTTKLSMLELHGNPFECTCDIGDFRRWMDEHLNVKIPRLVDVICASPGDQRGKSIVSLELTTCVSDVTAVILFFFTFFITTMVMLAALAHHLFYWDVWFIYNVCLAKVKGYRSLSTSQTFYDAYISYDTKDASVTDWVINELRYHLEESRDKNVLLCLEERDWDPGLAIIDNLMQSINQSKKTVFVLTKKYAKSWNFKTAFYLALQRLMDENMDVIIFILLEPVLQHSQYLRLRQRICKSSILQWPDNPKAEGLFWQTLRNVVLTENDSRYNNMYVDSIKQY
Method: HEK-Blue cells with stable expression of human TLR7 or TLR8 were used in the evaluation of inhibitory activity of compounds in the present invention against TLR7 or TLR8, by using its ability to induce the SEAP reporting gene under the control of the fusion of IFN-β minimum promoters into five NF-κB and ap-1 binding sites, as follows: hTLR7 HEK-Blue cells (Invivogen, 80, 000 cells per well) or hTLR8 HEK-Blue cells (60, 000 cells per well) were added to a 96-well cell culture plate. A solution of the testing compounds were added to each well, with the final concentration of tested compounds in the medium ranged from 0.001 to 36 µM and the culture was incubated for 15 minutes. M5049 was used as positive controls in the testing.
Then a TLR7 ligand (Gardiquimod, purchased from MedChemExpress, with final concentration of ligand in cell culture medium kept at 10 µM) or a TLR8 ligand (purchased from MedChemExpress with final concentration in cell culture media at 10 µM) and the culture was incubated for 20 hours. According to the manufacturer's instructions, a HEK-Blue reagent Quanti-blue (Invivogen) was used to detect the SEAP levels in cell cultures. The half […] concentration or IC50 was calculated by using GraphPad Prism. […] Table 1: Activities of examples in this invention to hTLR7/8 in HEK-Blue Cells

Row | Compound | IC50 [µM]
1 | C[C@@H]1CN(c2ccc(C#N)n3ncc(F)c23)Cc2c3c(nn21)CN(Cc1ccn[nH]1)CC3 [Example I-29] | < 0.1

same assay, conditions: hTLR8 HEK-Blue cells, TLR8 ligand 10 µM, 20 hours, SEAP by Quanti-blue; class symbols; read-out: HEK-Blue hTLR8 IC50

Row | Compound | pIC50
2 | 4-((4R,9S)-4,9-dimethyl-8-((2R,6R)-6-methylmorpholine-2-carbonyl)-3,4,7,8,9,10-hexahydropyrido[3',4':3,4]pyrazolo[1,5-a]pyrazin-2(1H)-yl)-3-fluoropyrazolo[1,5-a]pyridine-7-carbonitrile [Example I-122] | > 7.00
3 | 4-((4R,9S)-8-(L-prolyl)-4,9-dimethyl-3,4,7,8,9,10-hexahydropyrido[3',4':3,4]pyrazolo [1,5-a]pyrazin-2(1H)-yl)-3-fluoropyrazolo[1,5-a]pyridine-7-carbonitrile [Example I-114] | > 7.00
4 | CCC1CN(c2ccc(C#N)n3ncc(F)c23)Cc2c3c(nn21)CNCC3 (stereo not shown) [Example I-17, 4-(4-Ethyl-3,4,7,8,9,10-hexahydropyrido[3',4':3,4]pyrazolo[1,5-a]pyrazin-2(1H)-yl)-3-fluoropyrazolo[1,5-a]pyridine-7-carbonitrile] | < 7.00
5 | C[C@@H]1CN(c2ccc(C#N)n3ncc(F)c23)Cc2c3c(nn21)CC(N1CCOCC1)CC3 (stereo partly drawn) [Example I-31, 3-Fluoro-4-((4R)-4-methyl-8-morpholino-3,4,7,8,9,10-hexahydropyrazino[1,2-b]indazol-2(1H)-yl)pyrazolo[1,5-a]pyridine-7-carbonitrile] | > 7.00
6 | C[C@@H]1CN(c2ccc(C#N)n3ncc(F)c23)Cc2c3c(nn21)CN(C1CCNCC1O)C(=O)C3 (stereo partly drawn) [Example I-32, 3-Fluoro-4-((4R)-8-(3-hydroxypiperidin-4-yl)-4-methyl-9-oxo-3,4,7,8,9,10-hexahydropyrido[3',4':3,4]pyrazolo[1,5-a]pyrazin-2(1H)-yl)pyrazolo[1,5-a]pyridine-7-carbonitrile] | > 7.00
7 | C[C@@H]1CN(c2ccc(C#N)n3ncc(F)c23)Cc2c3c(nn21)C(CO)CNC3 (stereo partly drawn) [Example I-35, 3-Fluoro-4-((7R)-4-(hydroxymethyl)-7-methyl-1,3,4,7,8,10-hexahydropyrido[4',3':3,4]pyrazolo[1,5-a]pyrazin-9(2H)-yl)pyrazolo[1,5-a]pyridine-7-carbonitrile] | > 7.00
8 | C[C@@H]1CN(c2ccc(C#N)n3ncc(F)c23)Cc2c3c(nn21)CC1CCC3N1 (stereo partly drawn) [Example I-44, 3-Fluoro-4-((4R)-4-methyl-1,3,4,7,8,9,10,11-octahydro-2H-8,11-epiminocyclohepta [3,4]pyrazolo[1,5-a]pyrazin-2-yl)pyrazolo[1,5-a]pyridine-7-carbonitrile] | > 7.00
9 | C[C@@H]1CN(c2ccc(C#N)n3ncc(F)c23)Cc2c3c(nn21)CCNC3CO (stereo partly drawn) [Example I-46, 3-fluoro-4-((7R)-1-(hydroxymethyl)-7-methyl-1,3,4,7,8,10-hexahydropyrido[4',3':3,4]pyrazolo[1,5-a]pyrazin-9(2H)-yl)pyrazolo[1,5-a]pyridine-7-carbonitrile] | > 7.00
10 | C[C@@H]1CN(c2ccc(C#N)n3ncc(F)c23)Cc2c3c(nn21)CC(CN1CCOCC1)NC3 (stereo partly drawn) [Example I-47, 3-Fluoro-4-((7R)-7-methyl-3-(morpholinomethyl)-1,3,4,7,8,10-hexahydropyrido [4',3':3,4]pyrazolo[1,5-a]pyrazin-9(2H)-yl)pyrazolo[1,5-a]pyridine-7-carbonitrile] | < 7.00
11 | CC(C)CC1NCCc2c1nn1c2CN(c2ccc(C#N)n3ncc(F)c23)C[C@H]1C (stereo partly drawn) [Example I-69, 3-Fluoro-4-((4R)-7-isobutyl-4-methyl-3,4,7,8,9,10-hexahydropyrido[3',4':3,4]pyrazolo [1,5-a]pyrazin-2(1H)-yl)pyrazolo[1,5-a]pyridine-7-carbonitrile] | > 7.00
12 | COC[C@@H]1CCCN1CC(=O)N1Cc2nn3c(c2C[C@@H]1C)CN(c1ccc(C#N)n2ncc(F)c12)C[C@H]3C [Example I-109, 3-Fluoro-4-((4R,9S)-8-(2-((S)-2-(methoxymethyl)pyrrolidin-1-yl)acetyl)-4,9-dimethyl-3,4,7,8,9,10-hexahydropyrido[3',4':3,4]pyrazolo[1,5-a]pyrazin-2(1H)-yl)pyrazolo[1,5-a]pyridine-7-carbonitrile] | > 7.00
13 | C[C@@H]1CN(c2ccc(C#N)n3ncc(F)c23)Cc2c3c(nn21)CN(CC(=O)N1C[C@H](C)N[C@@H](C)C1)[C@@H](C)C3 [Example I-145, 4-((4R,9S)-8-(2-((3S,5S)-3,5-dimethylpiperazin-1-yl)-2-oxoethyl)-4,9-dimethyl-3,4,7,8,9,10-hexahydropyrido[3',4':3,4]pyrazolo[1,5-a]pyrazin-2(1H)-yl)-3-fluoropyrazolo[1,5-a]pyridine-7-carbonitrile] | > 7.00

Results, then the compound that gave them:

Row | pIC50 | Compound
14 | < 7.00 | C[C@@H]1CN(c2ccc(C#N)n3ncc(F)c23)Cc2c3c(nn21)CN(CCO)CC3 [Example I-19, (R)-3-Fluoro-4-(8-(2-hydroxyethyl)-4-methyl-3,4,7,8,9,10-hexahydropyrido[3',4':3,4]pyrazolo[1,5-a]pyrazin-2(1H)-yl)pyrazolo[1,5-a]pyridine-7-carbonitrile]
15 | > 7.00 | C[C@@H]1CN(c2ccc(C#N)n3ncc(F)c23)Cc2c3c(nn21)CC(N)CC3 (stereo partly drawn) [Example I-20, 4-((4R)-8-amino-4-methyl-3,4,7,8,9,10-hexahydropyrazino[1,2-b]indazol-2(1H)-yl)-3-fluoropyrazolo[1,5-a]pyridine-7-carbonitrile]
16 | > 7.00 | C[C@@H]1CN(c2ccc(C#N)n3ncc(F)c23)Cc2c3c(nn21)CC(CO)NC3 (stereo partly drawn) [Example I-36, 3-Fluoro-4-((7R)-3-(hydroxymethyl)-7-methyl-1,3,4,7,8,10-hexahydropyrido[4',3':3,4]pyrazolo[1,5-a]pyrazin-9(2H)-yl)pyrazolo[1,5-a]pyridine-7-carbonitrile]
17 | > 7.00 | C[C@@H]1CN(c2ccc(C#N)n3ncc(F)c23)Cc2c3c(nn21)CC(N)C(O)C3 (stereo partly drawn) [Example I-37, 4-((4R)-8-amino-9-hydroxy-4-methyl-3,4,7,8,9,10-hexahydropyrazino [1,2-b]indazol-2(1H)-yl)-3-fluoropyrazolo[1,5-a]pyridine-7-carbonitrile]
18 | < 7.00 | C[C@@H]1CN(c2ccc(C#N)n3ncc(F)c23)Cc2c3c(nn21)CNCC3O (stereo partly drawn) [Example I-38, 3-Fluoro-4-((4R)-10-hydroxy-4-methyl-3,4,7,8,9,10-hexahydropyrido[3',4':3,4]pyrazolo[1,5-a]pyrazin-2(1H)-yl)pyrazolo[1,5-a]pyridine-7-carbonitrile]
19 | > 7.00 | CC(C)C1NCCc2c1nn1c2CN(c2ccc(C#N)n3ncc(F)c23)C[C@H]1C (stereo partly drawn) [Example I-70, 3-Fluoro-4-((4R)-7-isopropyl-4-methyl-3,4,7,8,9,10-hexahydropyrido[3',4':3,4]pyrazolo[1,5-a]pyrazin-2(1H)-yl)pyrazolo[1,5-a]pyridine-7-carbonitrile]
20 | > 7.00 | C[C@@H]1CN(c2ccc(C#N)n3ncc(F)c23)Cc2c3c(nn21)CC(C)(N)CC3 (stereo partly drawn) [Example I-71, 4-((4R)-8-amino-4,8-dimethyl-3,4,7,8,9,10-hexahydropyrazino[1,2-b]indazol-2(1H)-yl)-3-fluoropyrazolo[1,5-a]pyridine-7-carbonitrile]
21 | > 7.00 | C[C@@H]1CN(c2ccc(C#N)n3ncc(F)c23)Cc2c3c(nn21)CC(C)(C)NC3 [Example I-78, (R)-3-Fluoro-4-(3,3,7-trimethyl-1,3,4,7,8,10-hexahydropyrido[4',3':3,4]pyrazolo [1,5-a]pyrazin-9(2H)-yl)pyrazolo[1,5-a]pyridine-7-carbonitrile]
22 | > 7.00 | C[C@@H]1CN(c2ccc(C#N)n3ncc(F)c23)Cc2c3c(nn21)CC(N)CCC3 (stereo partly drawn) [Example I-214, 4-((4R)-8-amino-4-methyl-1,3,4,7,8,9,10,11-octahydro-2H-cyclohepta[3,4]pyrazolo[1,5-a]pyrazin-2-yl)-3-fluoropyrazolo[1,5-a]pyridine-7-carbonitrile]
